Patent US10806798B2, “Compound with effects of thrombolysis, free radical scavenging and thrombus-targeting” (Shanghai Lumosa Therapeutics Co., Ltd., priority 2012, dated 2020)
Marks after values point to notes of the source that are not given here.

Experiments:
[1] = test system: NO free radicals (acetylcholine induced vasodilation); assay: NO radical scavenging: inhibition of acetylcholine induced vasodilation of aorta rings; parameters: species or system Wistar rats; conditions: final concentration 5×10^−6 M; n = 6
Procedure: Male Wistar rats weighing 250 to 300 g were starved for 12 h before operation with free access to drinking water, and sacrificed by cervical dislocation. Thoracotomy was immediately carried out and thoracic aorta was taken out, connective tissues attached thereto were dissected, and vessels were cut into aorta rings with a length of 3 to 5 mm and placed into a perfusion bath. The bath contained 15 ml Krebs-Henseleit solution and was kept at a constant temperature of 37° C., into which 95% O2-5% CO2 gas was charged. The anchor to which the aorta rings were immobilized was connected to a tension transducer, and vasomotion curves were recorded on a dual-trace recorder at a paper speed of 1 mm/min. With the static tension adjusted to 1.0 g and 30 min of equilibration, norepinephrine at a final concentration of 10^−8 M was dosed to allow the aorta to contract for preexcitation. Norepinephrine was washed off, followed by 30 min of equilibration, and norepinephrine was added into the bath to a final concentration of 10^−8 M. When the contraction tension was steady at a plateau level, 20 μl normal saline (blank), a 20 μl solution of any one of compounds Ia to Il in normal saline (at a final concentration of 5×10^−6 M), or a 20 μl solution of NO free radical scavenger (1,3-dioxo-2-(4′-oxyacetoxyl-phenyl)-4,4,5,5-tetramethylimidazoline, TMMZ) in normal saline (at a final concentration of 5×10^−6 M) was added into the bath. When stabilized, a 20 μl acetylcholine in normal saline was added (at a final concentration of 10^−6 M). The NO scavenging ability of the drugs was expressed as a percentage of inhibition of acetylcholine induced vasodilation.

rats with stroke [2] = assay: Cerebral infarction volume after immediate treatment of stroke (TTC staining); assay type: in vivo, SD rats; conditions: 1 μmol/kg; immediate treatment; n = 10
Procedure: After the rats were awake for 24 h and assessed for their degree of damage in neural function in Experimental example 6, they were anesthesized with urethane followed by immediate decapitation and removal of the brain. Brain tissues were kept in a −20° C. refrigerator for 2 h, and coronal sections of about 2 mm were successively sliced from the prefrontal end for a total of 6 sections, and then placed into a 2% TTC solution to incubate in darkness at 37° C. for 30 min. The color change in brain sections was observed: normal brain tissues were stained red by TTC, while ischemic brain tissues, i.e., brain tissues with infracts, appeared in a white color. Photographs were taken by using a digital camera and processed with SPSS statistics software, and the volume of infarction in brain tissues and the volume of normal brain tissues in the coronal sections were calculated.

rats with stroke [3] = assay: Immediate treatment after stroke onset, neural function scores (Zealonga method, 0 no loss to 5 death); assay type: in vivo, SD rats; conditions: 1 μmol/kg, 24 h after awake
Procedure: The in vivo anti-stroke activity of the present invention was represented by neural function scores, with a lower score indicating higher activity. A 10% chloral hydrate solution (400 mg/kg) was injected intraperitoneally into SD male rats (250-300 g) for anesthesia. An open incision of 2 cm in length was longitudinally made slightly on the right to the center of the neck, and the right common carotid artery trunk, carotid external artery and carotid internal artery were dissected along the margin of the inner side of sternocleidomastoid muscles. The open incisions in the carotid internal artery and the proximal end of the common carotid artery were occluded respectively with noninvasive arterial clips. A small open incision was made across the carotid external artery, and the distal end of the carotid external artery was ligated. The arterial clip at the proximal end of the carotid external artery was released, and 10 μl blood was drawn before the proximal end of the common carotid artery was again occluded with the noninvasive arterial clip. The 10 μl blood drawn was placed in a 1 mL EP vial and kept at RT for 30 min for coagulation of blood, and then transferred into a −20° C. refrigerator for 1 h to allow coagulation. After 1 h, the blood clots were taken out, into which 1 mL saline was added, and then broken into uniform microthrombus by using a steel spatula. The microthrombus suspension was then transferred to a 1 mL injector until use. At the same time when the clip on the carotid internal artery of the rat was released, 1 mL thrombus suspension in the injector was slowly injected from the carotid external artery of the rat to its proximal end, and the suspension was injected into the brain of the rat through the carotid internal artery. Subsequently, the proximal end of the carotid external artery was ligated, the arterial clips on the carotid internal artery and the common carotid artery were released, and blood flow was restored. The jugular common vein of the rats was dissected. The vein was immediately ligated, 3 drops of penicillin was dropped at the wound site, the wound was stitched up, and the animals were allowed to come around, as the sham operation group. Or injection of urokinase in normal saline (positive control group, at a dosage of 20000 IU/kg), normal saline (blank control group, at a dosage of 3 ml/kg), TMMZ in normal saline (component control group, at a dosage of 1 μmol/kg), a thrombolytic peptide ARPAK (SEQ. ID NO. 4), GRPAK (SEQ. ID NO. 5), RPAK (SEQ. ID NO. 3) or PAK in normal saline (component control group, at a dosage of 1 μmol/kg), or one of compounds Ia-Il in normal saline (at a dosage of 0.1 μmol/kg) was carried out. 24 h after the rats were awake, the degree of damage in the neural function was evaluated by the Zealonga method. A score of 0 indicated no sign of loss in neural function, 1 indicated the front limbs on the undamaged side could not stretch out, 2 indicated walking toward the undamaged side, 3 indicated tail-chasing walking in circles toward the undamaged side, 4 indicated involuntary walking with disturbance of consciousness, and 5 indicated death.

thrombus [4] = assay: In vivo anti-thrombus experiment (arteriovenous cannula with thread); parameters: species or system SD rats; conditions: n = 11
Procedure: SD rats (male, 220 to 230 g) were randomly divided into groups with 11 rats in each group. The rats were fed at a resting state for 1 day and fasted overnight. […] After 30 min, the rats were anesthetized with a 20% urethane solution, and the right carotid artery and the left carotid vein were dissected. A cannula was filled with sodium heparin in normal saline, and one end thereof was inserted into the left vein, while the other end was injected with a certain amount of sodium heparin for anticoagulation with an injector and then inserted into the right artery. Blood flew from the right artery to the left vein through the polyethylene tubing, and the thread attached with thrombus was taken out after 15 min and the weight thereof was recorded. The wet thrombus weight was determined by subtracting the thread weight from the total weight.

[5] = test system: thrombus from rat arterial blood; assay: In vitro thrombolysis; parameters: species or system SD rats; conditions: 100 nM, 2 h at 37° C., n = 6
Procedure: SD rats (male, 350 to 400 g) were anaesthetized by intraperitoneal injection of a urethane solution at a dosage of 1200 mg/kg. The anaesthetized rats were fixed in a supine position, and the right common carotid artery was dissected, clamped at the proximal end with an arterial clip, and penetrated with a suture at the proximal and distal ends, respectively. The suture at the distal end is clipped tightly by a hemostatic clamp at the fur. Cannulation was performed at the distal end, the artery clamp was removed, and the total arterial blood was discharged into a 50 ml container previously treated with silicone oil. […] rat arterial blood was injected into a vertically fixed glass tube (20 mm in length, with an inner diameter of 4 mm and an outer diameter of 5 mm, sealed with a rubber stopper at the bottom), into which was immediately inserted a thrombus immobilization screw made of stainless steel. […] 40 min after the blood was coagulated, the rubber stopper at the bottom of the glass tube was removed, the stem of the thrombus immobilization screw was nipped by forceps, and the thrombus-wrapped thrombus immobilization screw was carefully taken out from the glass tube. The screw was then suspended and dipped in triple-distilled water to remove excessive blood, and accurately weighed after 1 h. The thrombus was suspended in 8 mL of normal saline, or a solution of compounds Ia-Il in normal saline (at a concentration of 100 nM), or a solution of ARPAK (SEQ. ID NO. 4), GRPAK (SEQ. ID NO. 5), RPAK (SEQ. ID NO. 3) or PAK in normal saline (at a concentration of 100 nM), or a solution of urokinase in normal saline (100 IU/mL), then shaked at 37° C. in a thermostatic shaker (63 r/min), and removed after 2 h and accurately weighed to determine the weight of the thrombus.

thrombus [6] = assay: In vivo thrombolysis, rat arteriovenous bypass thrombolysis model; parameters: species or system SD rats; conditions: 1 μmol/kg, after 1 h, n = 10
Procedure: SD rats (male, 220 to 230 g) were anaesthetized by intraperitoneal injection of a urethane solution at a dosage of 1200 mg/kg. The anaesthetized rats were fixed in a supine position, and the right common carotid artery was dissected, clamped at the proximal end with an arterial clip, and penetrated with a suture at the proximal and distal ends, respectively. The suture at the distal end is clipped tightly by a hemostatic clamp at the fur. Cannulation was performed at the distal end, the arterial clamp was removed, and about 1 ml arterial blood was discharged into a 1 ml eppendorf. 0.1 ml rat arterial blood was injected into a vertically fixed glass tube (15 mm in length, with an inner diameter of 2.5 mm and an outer diameter of 5.0 mm, sealed with a rubber stopper at the bottom), into which was immediately inserted a thrombus immobilization screw made of stainless steel. […] 15 min after the blood was coagulated, the rubber stopper at the bottom of the glass tube was removed, the stem of the thrombus immobilization screw was nipped by forceps, and the thrombus-wrapped thrombus immobilization screw was carefully taken out of the glass tube and then accurately weighed.
A bypass cannula was composed of 3 segments. The middle segment was a polyethylene tubing having a length of 60.0 mm and an inner diameter of 3.5 mm. The segments on both ends were similar polyethylene tubes having a length of 100.0 mm, an inner diameter of 1.0 mm and an outer diameter of 2.0 mm, one end of which was pulled to form a tip, with an outer diameter of 1.0 mm, that could be inserted into the rat carotid artery or vein, and the other end of which was sheathed by a polyethylene tube having a length of 7.0 mm and an outer diameter of 3.5 mm (thickened in order to be inserted into the polyethylene tubing of the middle segment). The inner wall of the 3-segment cannula was entirely silylated (with 1% silicone oil in ethyl ether). The thrombus-wrapped thrombus immobilization screw was placed into the polyethylene tubing of the middle segment, and both ends of the tubing sheathed the thickened ends of the two polyethylene tubes. The cannula was filled with a heparin solution in normal saline (50 IU/kg) through the tip end by using an injector and was ready for use. The trachea of the anaesthetized rat was then dissected and tracheal cannulation was performed. The left external carotid vein of the rat was dissected, and penetrated with a suture at the proximal and distal ends, respectively. An uneven open incision was careful made on the exposed left external carotid vein, and the tip of the bypass cannula prepared as described above was inserted into the proximal end of the open incision in the left external carotid vein, away from the stem of the thrombus immobilization screw in the middle segment of the bypass cannula (which accommodated the accurately weighed thrombus immobilization screw). A precise amount of heparin in saline (50 IU/kg) was injected through the tip at the other end by using an injector. At this moment, without removing the injector from the ethylene tube, the tubing between the injector and the polyethylene tube was clamped with forceps. The blood flow was stopped by clamping the proximal end of the right common carotid artery with an arterial clip, and an uneven open incision was cut carefully across the common carotid artery near the clip. The injector was pulled out of the tip of the polyethylene tube, and the tip of the polyethylene tube was then inserted into the proximal end of the artery open incision. Both ends of the bypass cannula were fixed to the artery or vein with #4 sutures. […]

| Compound | Percentage of infarction volume (Mean ± SD %) (rats with stroke [2]) | Wet weight of thrombus (Mean ± SD mg) (thrombus [4]; 10 μmol/kg by gavage) | Weight reduction in thrombus (Mean ± SD mg) [5] | Weight reduction in thrombus (Mean ± SD mg) (thrombus [6]) | further results |
| --- | --- | --- | --- | --- | --- |
| CC1(C)N([O])C(c2ccc(OCC(=O)O)cc2)=[N+]([O-])C1(C)C [TMMZ, 1,3-dioxo-2-(4′-oxyacetoxy-phenyl)-4,4,5,5-tetramethylimidazoline, reference compound] | 22.96 ± 2.43 ^a % | – | – | – | Percentage of inhibition (Mean ± SD %) of vasodilatation induced by acetylcholine [1]: 15.47%; Neural function scores (Mean ± SD) (rats with stroke [3]; n = 10): 2.83 ± 0.75 ^a |
| Arg-Gly-Asp-Phe (RGDF) [RGDF (SEQ. ID NO. 13), targeting peptide, reference compound] | – | 19.55 ± 2.21 mg | – | – | – |
| Gly-Arg-Pro-Ala-Lys (GRPAK) [GRPAK (SEQ. ID NO. 5), thrombolytic peptide, component control, reference compound] | 21.77 ± 2.46 ^a % | – | 15.47 ± 2.61 mg | 15.47 ± 2.61 mg | – |
| Ala-Arg-Pro-Ala-Lys (ARPAK) [ARPAK (SEQ. ID NO. 4), thrombolytic peptide, component control, reference compound] | 22.00 ± 2.20 ^a % | – | 26.35 ± 3.10 mg | 15.20 ± 2.55 mg | – |
| Pro-Ala-Lys [PAK, reference compound] | 22.07 ± 2.40 ^a % | – | 26.67 ± 3.20 mg | 15.00 ± 2.61 mg | – |
| CC(=O)Oc1ccccc1C(=O)O [aspirin, reference compound] | – | – | – | – | Wet weight of thrombus (Mean ± SD mg) (thrombus [4]; aspirin 33 mg/kg by gavage): 12.85 ± 2.49 ^a mg |
| Arg-Pro-Ala-Lys (RPAK) [RPAK (SEQ. ID NO. 3), thrombolytic peptide, component control, reference compound] | 22.11 ± 2.25 ^a % | – | 26.01 ± 3.11 mg | 15.67 ± 2.61 mg | Neural function scores (Mean ± SD) (rats with stroke [3]; n = 10): did not exhibit anti-stroke activity; Neural function scores (Mean ± SD) (rats with stroke [3]; n = 10, listed as RPAKI (SEQ. ID NO. 3)): 2.38 ± 0.97 ^a |
| Arg-Gly-Asp-Ser (RGDS) [RGDS (SEQ. ID NO. 11), targeting peptide, reference compound] | – | 20.02 ± 2.35 mg | – | – | – |
| Arg-Gly-Asp-Val (RGDV) [RGDV (SEQ. ID NO. 12), targeting peptide, reference compound] | – | 21.26 ± 2.07 mg | – | – | – |
